# Columns and labels:
# [1] = test system: HL-60 cells; assay: Cellular proliferation of HL-60 cells (hemocytometer count); format: cell-based, human; settings: for reduction in cell growth compared to control HL-60 cells: 96-hour incubation; for Cell Growth (10^5 cells/ml): Table 1, 96 h incubation, initial 2.5×10^5 cells/ml, RA 1.0 μmol/L, ribose 10 mmol/L; for change in cell number over the 96-hour incubation period: initial cell density 2.5×10^5
# Description: (§1) For the in vitro studies, HL-60 cells (American Type Culture Collection, Manassas, Va.), an immortal human lymphocyte cell line, at approximately passage twenty were maintained between 2.0×10^5 cells/ml in RPMI 1640 medium containing HEPES buffer (Cellgro, Mediatech Inc., Herdon, Va.), 2 mmol/L L-glutamine (Cellgro), 1% antimycotic (Cellgro), 10% heat treated fetal bovine serum (FBS: GibcoBRL; Life Technologies, Baltimore, Md.), and 0.1% gentamicin (GibcoBRL).
# (§2) Experimental flasks were initiated at a concentration of 2.5×10^5 cells/ml. Differentiation of HL-60 cells was induced using all-trans retinoic acid (RA) prepared in 95% ethanol. RA was added to flasks at a concentration of 1.0 μmol/L such that the ethanol concentration added to the flask was less than 0.1%. D-Ribose preparations were made by dissolving powdered ribose (Bioenergy, Minneapolis, Minn.) in RPMI medium followed by sterile filtration.
# (§3) The specificity of ribose, time and dose response was examined. The doses of ribose were 1, 5, 10, 25 and 50 mmol/L. In experiments in which one concentration of ribose was used, 10 mmol/L was the dose chosen. The effect of timing of the dose was explored by adding ribose at various times after the addition of the retinoic acid. Specificity was examined by substituting glucose, to eliminate the nonspecific effects of ribose as a substrate for glycolysis or gluconeogenesis, or change in osmolarity.
# (§4) Following ninety-six hours of incubated (or as specified), cells were harvested, counted by hemocytometer and viability assessed using trypan dye exclusion. For growth and viability determinations, cells were counted three times within one experiment. Results shown were from at least three experiments. Cells were washed twice with phosphate buffered salt solution (PBS) and brought to a concentration of 2.0×10^7 cells/ml PBS.
# [2] = Viability of HL-60 cells (trypan dye exclusion); format: cell-based, human; settings: human, HL-60 cells; for viability at 96 h: Table 1, 96 h incubation, RA 1.0 μmol/L, ribose 10 mmol/L
# Description: as §1, §2, §3, §4
# [3] = test system: HL-60 cells; assay: Viability of HL-60 cells (trypan dye exclusion); format: cell-based, human; settings: summary of Table 1
# Description: as §1, §2, §3, §4
# [4] = test system: HL-60 cells; assay: Cell surface markers of maturity (CD11b, CD117) on HL-60 cells; format: cell-based, human; settings: for expression of cell surface marker reactive with CD11b antibody: FIG. 1
# Method: Cell samples for the detection of cell surface molecules were prepared for flow cytometry in 12×17 mm capped conical tubes. To each tube, 30 μl of PBS containing 2% FBS was added. To each of triplicate tubes, a phycoerythrin (PE) labeled antibody (PharMingen, San Diego, Calif.) was added: 20 μl of CD1 lb, 20 μl of CD117, or 20 μl of isotype control (Mouse IgG1,κ). Fifty microliters of prepared cell suspension were added to each tube, followed by gentle mixing. Tubes were placed on ice for forty-five minutes after which 2 ml of cold PBS containing 2% FBS were added to each tube. Tubes were centrifuged (Jouann, at 300×g for 10 minutes) at approximately 5° C. and supernatant removed. One ml of cold 0.5% paraformaldehyde solution was added to the pellet and tubes were vortexed immediately. Prior to analysis, fixed cells were stored in the dark at approximately 4° C. for a period no longer than one week. Samples were analyzed on FACScan. Data were analyzed using WinMDI Software (Scripps Institute, build 1301-19-200, San Diego, Calif.).
# Differentiation is accompanied by changes in the surface markers CD117 and CD11b. CD117 is a tyrosine kinase receptor that is expressed in high quantities on undifferentiated cells, while CD11b is a cell adhesion molecule expressed in high quantities on differentiated cells. After harvest, aliquots of the ribose and glucose control cells were allowed to differentiate with retinoic acid as above. An ELISA assay was set up with antibodies against CD117 or CD11b.
# [5] = test system: HL-60 cells; assay: ATP determination in HL-60 cells; format: cell-based, human; settings: HL-60 control about five μmoles per 10^9 cells
# Method: Determination of ATP was performed using a kit purchased from Sigma Diagnostics (St. Louis, Mo.) with slight modifications. 1.0 ml of 12% trichloroacetic acid (TCA) and 1.0 ml of prepared cell suspension (1×10^7 cells/ml) were combined, vortexed and placed on ice for five minutes. Tubes were then centrifuged (Jouann, at 2000×g for 8 minutes) to obtain a clear supernatant. The following reagents were then added into vials containing 0.3 mg NADH: 1.0 ml phosphoglyceraldehyde buffered solution, 1.5 ml water, and 0.15 ml cell supernatant. Samples were distributed into two tubes. One tube was used to obtain an initial spectrophotometric absorbance at 340 nm. Fifteen μl of GAPD/PGK enzyme mixture were added to the second tube and read after ten minutes. Changes in absorbance were calculated and results were expressed as μmol of ATP per 1×10^9 cells.
# [6] = test system: HL-60 cells; assay: Respiratory burst (superoxide anion, ferricytochrome c reduction, PMA stimulated); format: cell-based, human; settings: for increase in rate of superoxide generation compared to HL-60 control cells: FIG. 3
# Method: Specific cells undergo an increase in oxygen uptake when presented with appropriate stimuli, such as invading microorganisms or phorbol ester. The cells utilize this oxygen to produce a series of free radicals that kill the invading microorganism. Production of free radicals occurs via an enzyme called NADPH oxidase. Free radical production is measured spectrophotometrically by a change in color of ferricytochrome c.
# The ability of cells to produce superoxide anion was measured by the reduction of ferricytochrome c via a microtiter plate (Levy et al (1990)). Fifty microliters of cells (1×10^7 cells/ml) previously incubated with retinoic acid, ribose or glucose were plated in triplicate wells of a microtiter plate. Each well contained 10 μl of 1.5 mol/L ferricytochrome c substrate and 100 μl of DPBD containing 1 mmol/L glucose. Cells were stimulated to produce superoxide anion by addition of 10 μl of 1.6 μmol/L phorbol 12-myristate 13-acetate (PMA). A kinetic reading on dual wavelengths of 540-490 nM was taken using a Molecular Devices microtiter plate reader (UVMax, Menlo Park, Calif.). Change in absorbance was measured over ten minutes. In order to ensure that reduction of ferricytochrome was the result of superoxide anion, experimental samples were incubated with 10 μl of bovine erythrocyte superoxide dismutase (7500 units/ml). […] Respiratory burst was expressed as the change in optical density/10^6 cells.
# [7] = test system: spleen cells; assay: PHA-stimulated spleen cell proliferation (tritiated thymidine); format: cell-based, mouse
# Method: (§5) Mice are the species of choice for studies of the immune response because of the numerous nutritional and interventional studies that have been performed on mice. Details of its immune response are well studied and the inbred lines used eliminate any genetic differences. Spleens and thymus were removed from weanling Swiss ICR mice and cell suspensions prepared. The spleen and thymus cells were plated in a 96-well plate and various levels of ribose added to each well in triplicate. Phytohaemagglutinin (PHA), a T-cell stimulator, was added and the cells incubated for 48 hours. Tritiated Thymidine was then added, the cells harvested 24 hours later, and radioactivity incorporated was determined by liquid scintillation counting.
# [8] = test system: thymus cells; assay: PHA-stimulated thymus cell proliferation (tritiated thymidine); format: cell-based, mouse
# Method: as §5
# [9] = test system: weanling Swiss ICR mice; assay: In vivo loading with ribose, planned immune response and pathogen challenge studies; parameters: species or system mouse; settings: expected result
# Description: For the in vivo studies, weanling Swiss ICR mice (three weeks old) were fed a fully nutritious, casein-based diet (AIN 93G).
# This pilate study will be followed by a broader study with ten animals per groups. Popliteal lymphoproliferation, delayed-type hypersensitivity (DTH) and thymic and splenic lymphocyte proliferation will be tested. To determine popliteal lymphoproliferation, the popliteal node will be excised and weighed after antigen injection into the hind-leg footpad. DTH can be assessed by measuring ear swelling after sensitization and stimulation with the prop antigen dinitrofluorobenzene. Thymic and splenic proliferation will be determined from cells isolated from the thymus and spleen and pulsed with tritiated thymidine. These four measures are all T-cell responses.
# Another group of animals will be fed as above. […] T-cell numbers, proliferation and migration, B-cell numbers, NK cell numbers and migration, neutrophil numbers, migration and oxidative burst will be determined. […] Cells will be quantitated by flow cytometry, oxidative burst will be determined spectrophotometrically and proliferation by incorporation of tritiated thymidine. Cell migration will be determined by flow cytometry as the percentage of cells. In addition, the activity of myeloperoxidase, a degradative enzyme specific to neutrophils, can be measured in lung tissue to determine this cell's migration. […]
# [10] = as much as 20 gm; cited from earlier work
# [11] = test system: various cell cultures; settings: 12.5 to 50 mM; Marini et al 1985; cited from earlier work
# [12] = healthy males; U.S. Pat. No. 6,159,942; cited from earlier work
# [13] = 10 mM ribose, cells differentiated with retinoic acid
SMILES,reduction in cell growth compared to control HL-60 cells [1],Cell Growth (10^5 cells/ml) [1],change in cell number over the 96-hour incubation period [1],viability at 96 h [2],change in viability versus control [3],expression of cell surface marker reactive with CD11b antibody ([4]; ribose added to RA),increase in rate of superoxide generation compared to HL-60 control cells [6],effect on incorporation of tritiated thymidine / metabolic processes [11],further results
O=C[C@H](O)[C@H](O)[C@H](O)CO [D-Ribose],30%,6.68 +/− 1.29 10^5 cells/ml,nearly tripled in number,86.3%,slight reductions in viability,increased further,no significant increase,deeply derange metabolic processes,"increase in CD11b [4, 13]: threefold increase; reduction in CD117 [4, 13]: 30%; immature cell surface marker recognized by CD117 antibody ([4]; FIG. 2, ribose added to RA): reduced; change in ATP concentration versus HL-60 control [5]: slightly increased; spleen cell proliferation ([7]; low levels of ribose): slight, but non-significant stimulation; spleen cell proliferation ([7]; ribose above 5 mM): tended to inhibit proliferation; thymus cell proliferation ([8]; low levels of ribose): slight, but non-significant stimulation; thymus cell proliferation ([8]; ribose above 5 mM): tended to inhibit proliferation; immune response parameters after diet supplementation and pathogen challenge [9]: benefit the immune response; tolerability [10]: well tolerated; energy level (skeletal muscle ATP, power output) [12]: enhances the energy level"
"CC1=C(/C=C/C(C)=C/C=C/C(C)=C/C(=O)O)C(C)(C)CCC1 [RA, all-trans retinoic acid]",30%,7.01 +/− 2.14 10^5 cells/ml,nearly tripled in number,84.5%,slight reductions in viability,high level of expression,5.5 fold,,"Growth (cell/ml) ([1]; Table 2, mean ± SD, n = 5): 727000 ± 102000 cells/mL; viability at 1 μmol/L ([2]; Table 2, mean ± SD, n = 5): 82.6 ± 3.3%; CD117 (%) ([4]; Table 2, immature cell marker, mean ± SD, n = 5): 33.4 ± 9.5^A %; CD11b (%) ([4]; Table 2, mature cell marker, mean ± SD, n = 5): 35.7 ± 7.5^B %; Respiratory Burst (% of RA control) ([6]; Table 2, mean ± SD, n = 5): 100^B % of RA control"
"[2H]C(=O)C[C@H](O)[C@H](O)CO [deoxy-D-Ribose, reference compound]",,,,,,,,deeply derange metabolic processes,

# — patent US6663859B2, “Compositions for enhancing the immune response” (Bioenergy, Inc., priority 2000, dated 2003)
